Values quoted from earlier work, collected in patent publication US6998391B2, “Method for treating diseases associated with abnormal kinase activity” (SuperGen.Inc., priority 2002, dated 2006).
Where a name gives a salt, the structure may show the parent alone. Read-outs that look alike come from different tables or passages of the source. Where no end group is shown, it is not given here.

Key:
[1] = system: prostate cancer cells and osteoblasts; conditions: various in vitro and in vivo models
[2] = system: erbB receptor tyrosine kinase family; conditions: human cancer cell lines
[3] = system: platelet-derived growth factor receptor, fibroblast growth factor receptor, and insulin receptor; conditions: even at high concentrations
ERK1 = conditions: low doses
tumor microvessels = conditions: mouse, in vivo
JAK3 = molecular target: T1, JAK3 (Homo sapiens, UniProt P52333); conditions: dose-dependent fashion
T1 sequence (P52333 1-1124): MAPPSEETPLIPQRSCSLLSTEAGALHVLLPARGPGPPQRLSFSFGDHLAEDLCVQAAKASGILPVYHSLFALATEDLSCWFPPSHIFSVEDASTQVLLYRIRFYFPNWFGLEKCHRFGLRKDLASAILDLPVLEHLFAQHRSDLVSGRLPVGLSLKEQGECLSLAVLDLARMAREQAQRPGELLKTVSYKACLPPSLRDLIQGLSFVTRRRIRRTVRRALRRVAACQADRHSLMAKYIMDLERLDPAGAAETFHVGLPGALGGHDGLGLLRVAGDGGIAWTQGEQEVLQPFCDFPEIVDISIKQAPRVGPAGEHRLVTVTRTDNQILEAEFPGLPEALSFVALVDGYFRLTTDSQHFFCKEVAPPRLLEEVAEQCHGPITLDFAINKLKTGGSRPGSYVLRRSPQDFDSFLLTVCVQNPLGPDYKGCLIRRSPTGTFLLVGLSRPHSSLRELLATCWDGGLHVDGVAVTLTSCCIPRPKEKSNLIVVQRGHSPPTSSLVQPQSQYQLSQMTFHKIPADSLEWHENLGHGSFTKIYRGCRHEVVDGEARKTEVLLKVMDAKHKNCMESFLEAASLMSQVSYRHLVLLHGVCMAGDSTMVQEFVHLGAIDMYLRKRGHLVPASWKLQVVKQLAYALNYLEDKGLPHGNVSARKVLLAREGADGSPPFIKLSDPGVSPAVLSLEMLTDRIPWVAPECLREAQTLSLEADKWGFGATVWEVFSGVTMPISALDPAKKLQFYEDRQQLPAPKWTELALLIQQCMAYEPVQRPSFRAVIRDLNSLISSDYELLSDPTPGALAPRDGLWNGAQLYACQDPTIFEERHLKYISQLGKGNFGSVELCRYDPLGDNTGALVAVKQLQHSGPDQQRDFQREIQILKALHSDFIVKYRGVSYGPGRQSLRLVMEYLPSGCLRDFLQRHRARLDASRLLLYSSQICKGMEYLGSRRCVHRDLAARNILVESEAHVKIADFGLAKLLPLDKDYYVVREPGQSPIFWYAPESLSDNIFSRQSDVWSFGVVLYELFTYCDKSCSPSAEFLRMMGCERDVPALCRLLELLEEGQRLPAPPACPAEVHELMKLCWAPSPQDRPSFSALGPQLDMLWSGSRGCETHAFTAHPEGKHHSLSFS

Syk [4] = system: Syk
Syk [5] = molecular target: Syk (Homo sapiens, UniProt P43405)
Lck = Lck (Homo sapiens, UniProt P06239)
Sequence of Lck (P06239 whole entry, species assumed): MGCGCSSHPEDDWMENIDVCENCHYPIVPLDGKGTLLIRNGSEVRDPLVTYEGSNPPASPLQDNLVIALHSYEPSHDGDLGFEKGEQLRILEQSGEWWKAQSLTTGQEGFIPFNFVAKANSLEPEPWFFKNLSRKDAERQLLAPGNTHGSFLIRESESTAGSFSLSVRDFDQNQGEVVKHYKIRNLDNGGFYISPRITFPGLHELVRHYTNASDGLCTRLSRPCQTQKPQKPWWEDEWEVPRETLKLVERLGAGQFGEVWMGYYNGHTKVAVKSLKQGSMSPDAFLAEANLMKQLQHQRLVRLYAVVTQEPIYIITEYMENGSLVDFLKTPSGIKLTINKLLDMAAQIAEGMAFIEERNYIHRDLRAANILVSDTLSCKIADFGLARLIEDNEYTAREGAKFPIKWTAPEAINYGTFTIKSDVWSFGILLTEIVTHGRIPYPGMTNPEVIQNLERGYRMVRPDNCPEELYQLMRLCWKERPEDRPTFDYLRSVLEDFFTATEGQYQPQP

ZAP-70 = molecular target: T2, ZAP-70 (Homo sapiens, UniProt P43403)
T2 sequence (P43403 1-619): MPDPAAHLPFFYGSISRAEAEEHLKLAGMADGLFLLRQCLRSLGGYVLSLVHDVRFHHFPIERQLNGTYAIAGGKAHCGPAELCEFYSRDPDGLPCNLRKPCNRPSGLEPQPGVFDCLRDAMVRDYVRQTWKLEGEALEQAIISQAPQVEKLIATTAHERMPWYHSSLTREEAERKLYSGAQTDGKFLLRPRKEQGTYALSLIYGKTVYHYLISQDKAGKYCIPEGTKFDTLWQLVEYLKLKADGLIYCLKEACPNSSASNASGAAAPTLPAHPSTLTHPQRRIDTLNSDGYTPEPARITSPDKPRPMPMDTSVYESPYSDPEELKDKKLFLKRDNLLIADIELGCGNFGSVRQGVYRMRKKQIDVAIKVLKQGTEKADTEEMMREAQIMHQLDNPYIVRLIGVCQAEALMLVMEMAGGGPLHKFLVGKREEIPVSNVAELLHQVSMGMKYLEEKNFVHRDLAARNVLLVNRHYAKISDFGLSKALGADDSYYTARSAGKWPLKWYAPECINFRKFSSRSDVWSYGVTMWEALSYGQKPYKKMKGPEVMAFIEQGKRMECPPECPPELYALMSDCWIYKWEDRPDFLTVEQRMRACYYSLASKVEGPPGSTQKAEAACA

[6] = patients with chronic phase CML

## C[C@]12O[C@H](C[C@]1(O)CO)n1c3ccccc3c3c4c(c5c6ccccc6n2c5c31)CNC4=O [CEP-701]
[1]
  apoptosis of prostate cancer cells and osteoblasts: selectively induce apoptosis

## C=CC(=O)Nc1cc2c(Nc3ccc(F)c(Cl)c3)ncnc2cc1OCCCN1CCOCC1 [CI-1033]
[2]
  inhibition of tyrosine kinase activity: prompt, potent, and sustained inhibition
[3]
  inhibition of tyrosine kinase activity of other receptors: without inhibiting

## O=C(NOCC1CC1)c1ccc(F)c(F)c1Nc1ccc(I)cc1Cl [PD184352]
ERK5; low doses
  effect on ERK5: no effect
ERK1
  ERK1 activity: abolished

## Cc1ccc(NC(=O)c2ccc(CN3CCN(C)CC3)cc2)cc1Nc1nccc(-c2cccnc2)n1 [Imatinib mesylate]
CML patients; accelerated phase CML
  complete cytogenetic response: 14%
  complete cytogenetic response maintained for four weeks: 4%
CML patients; accelerated phase CML patients
  remissions: 63%
CML patients; blast phase CML
  complete cytogenetic response: 5%
  complete cytogenetic response maintained for four weeks: 1%
CML patients; blast phase patients
  remissions: 26%
CML patients; chronic phase CML
  complete cytogenetic response: 30%
  complete cytogenetic response maintained for four weeks: 16%
CML patients; [6]
  complete hematologic response: 88%
  major cytogenetic response: 49%

## COc1cccc(-c2cc(=O)c3ccccc3o2)c1N [PD98059]
ERK5
  ERK5/BMK1 pathway inhibition: inhibited
ERK1/2 pathway
  cyclin D1 expression and cell proliferation: prevented cyclin D1 expression and inhibits cell proliferation

## Cc1[nH]c(/C=C2\C(=O)Nc3ccccc32)c(C)c1CCC(=O)O [SU6668]
Tumor microvessels
  time to apoptosis in tumor microvessels after initiation of treatment: ≤ 6 h
  time to dose-dependent decreases in tumor microvessel density after first treatment: ≤ 3 days

## COc1cc2ncnc(Nc3ccc(O)c(Br)c3)c2cc1OC [WHI-P 154, 4-(3′-bromo-4′-hydroxylphenyl)-amino-6,7-dimethoxyquinazoline]
JAK3
  JAK3 inhibition: inhibited JAK3

## CO[C@]1(CO)C[C@H]2O[C@]1(C)n1c3ccccc3c3c4c(c5c6ccccc6n2c5c31)C(=O)NC4 [CEP-75 1]
[1]
  apoptosis of prostate cancer cells and osteoblasts: selectively induce apoptosis

## N#CC(=C(/N)Sc1ccccc1N)/C(C#N)=C(\N)Sc1ccccc1N [U0126]
ERK5
  ERK5/BMK1 pathway inhibition: inhibited
ERK1/2 pathway
  cyclin D1 expression and cell proliferation: prevented cyclin D1 expression and inhibits cell proliferation

## Oc1cc(O)cc(/C=C/c2ccc(O)c(O)c2)c1 [Piceatannol, 3,4,3′,5′-tetrahydroxy-trans-stilbene]
Syk [4]; by inhibiting Syk
  FceRI-mediated IP3 production, serotonin secretion, membrane ruffling and cell spreading: inhibits

## COc1cc2ncnc(Nc3cc(Br)c(O)c(Br)c3)c2cc1OC [WHI-P97, 4-(3′,5′-dibromo-4′-hydroxylphenyl)-amino-6,7-dimethoxyquinazoline]
JAK3
  JAK3 inhibition: inhibited JAK3

## KLILFLLL
Syk [5]
  inhibition of Syk: poor inhibitor
Lck
  inhibition of Lck: poor inhibitor
ZAP-70
  inhibition of ZAP-70: competitive inhibitor

## Cc1ccc2c(=O)c3ccccc3n(CCCN)c2c1C.O=C(O)C(=O)O [ER-27319, 3,4-dimethyl-10-(3-aminopropyl)-9-acridone oxalate]
Syk [4]; intact mast cells, not Lyn
  FceRI-mediated degranulation, tyrosine phosphorylation of Syk: inhibits
